System: 186277-243-T-J2-PDC complex spheroid viability
Assay: Anticancer human tumor 186277-243-T-J2-PDC patient-derived colon adenocarcinoma cell line growth inhibition [POLQ]
Settings: for IC50: curve of first compound; for viability, T/C: stronger effect = lower value
In short: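 Three-cell-type spheroids modelling solid tumor plus stroma served as the readout system; POL inhibitors were tested individually and in combination, concentration ranges set by clinical Cmax where known.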

[1] = second compound 0.0316 µM, first compound 0.0316 µM
[2] = second compound 0.0316 µM, first compound 0.1 µM
[3] = second compound 0.0316 µM, first compound 0.316 µM
[4] = second compound 0.0316 µM, first compound 1 µM
[5] = second compound 0.1 µM, first compound 0.0316 µM
[6] = second compound 0.1 µM, first compound 0.1 µM
[7] = second compound 0.1 µM, first compound 0.316 µM
[8] = second compound 0.1 µM, first compound 1 µM
[9] = second compound 0.316 µM, first compound 0.0316 µM
[10] = second compound 0.316 µM, first compound 0.1 µM
[11] = second compound 0.316 µM, first compound 0.316 µM
[12] = second compound 0.316 µM, first compound 1 µM
[13] = second compound 1 µM, first compound 0.0316 µM
[14] = second compound 1 µM, first compound 0.1 µM
[15] = second compound 1 µM, first compound 0.316 µM
[16] = second compound 1 µM, first compound 1 µM
[17] = second compound 3.16 µM, first compound 0.0316 µM
[18] = second compound 3.16 µM, first compound 0.1 µM
[19] = second compound 3.16 µM, first compound 0.316 µM
[20] = second compound 3.16 µM, first compound 1 µM
[21] = second compound 10 µM, first compound 0.0316 µM
[22] = second compound 10 µM, first compound 0.1 µM
[23] = second compound 10 µM, first compound 0.316 µM
[24] = second compound 10 µM, first compound 1 µM
[25] = second compound 0.0316 µM, first compound 3.16 µM
[26] = second compound 0.0316 µM, first compound 10 µM
[27] = second compound 0.1 µM, first compound 3.16 µM
[28] = second compound 0.1 µM, first compound 10 µM
[29] = second compound 0.316 µM, first compound 3.16 µM
[30] = second compound 0.316 µM, first compound 10 µM
[31] = second compound 1 µM, first compound 3.16 µM
[32] = second compound 1 µM, first compound 10 µM
[33] = second compound 3.16 µM, first compound 3.16 µM
[34] = second compound 3.16 µM, first compound 10 µM
[35] = second compound 10 µM, first compound 3.16 µM
[36] = second compound 10 µM, first compound 10 µM
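Note: spheroids exposed to compounds for seven days.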
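Throughout, for viability, T/C: 100% = DMSO vehicle control viability.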

C=CCn1c(=O)c2cnc(Nc3ccc(N4CCN(C)CC4)cc3)nc2n1-c1cccc(C(C)(C)O)n1 + COC1C(OC(N)=O)C(O)C(Oc2ccc3c(O)c(NC(=O)c4ccc(O)c(CC=C(C)C)c4)c(=O)oc3c2C)OC1(C)C
IC50 (second compound 0.0316 µM): 0.189 µM | IC50 (second compound 0.1 µM): 0.185 µM | IC50 (second compound 0.316 µM): 0.19 µM | IC50 (second compound 1 µM): 0.182 µM | IC50 (second compound 3.16 µM): 0.177 µM | IC50 (second compound 10 µM): 0.178 µM | viability, T/C (second compound 0.0316 µM, first compound 0.00316 µM): 100% | viability, T/C (second compound 0.0316 µM, first compound 0.01 µM): 88.2% | viability, T/C [1]: 109% | viability, T/C [2]: 93.4% | viability, T/C [3]: 14.8% | viability, T/C [4]: 7.82% | viability, T/C (second compound 0.1 µM, first compound 0.00316 µM): 83.8% | viability, T/C (second compound 0.1 µM, first compound 0.01 µM): 97.8% | viability, T/C [5]: 107% | viability, T/C [6]: 91.3% | viability, T/C [7]: 13.7% | viability, T/C [8]: 7.76% | viability, T/C (second compound 0.316 µM, first compound 0.00316 µM): 93.4% | viability, T/C (second compound 0.316 µM, first compound 0.01 µM): 87.7% | viability, T/C [9]: 99.2% | viability, T/C [10]: 100% | viability, T/C [11]: 14.1% | viability, T/C [12]: 8.59% | viability, T/C (second compound 1 µM, first compound 0.00316 µM): 103% | viability, T/C (second compound 1 µM, first compound 0.01 µM): 104% | viability, T/C [13]: 104% | viability, T/C [14]: 91.8% | viability, T/C [15]: 11.1% | viability, T/C [16]: 8.27% | viability, T/C (second compound 3.16 µM, first compound 0.00316 µM): 104% | viability, T/C (second compound 3.16 µM, first compound 0.01 µM): 96.2% | viability, T/C [17]: 109% | viability, T/C [18]: 85.8% | viability, T/C [19]: 13.5% | viability, T/C [20]: 7.48% | viability, T/C (second compound 10 µM, first compound 0.00316 µM): 104% | viability, T/C (second compound 10 µM, first compound 0.01 µM): 110% | viability, T/C [21]: 95.2% | viability, T/C [22]: 87.6% | viability, T/C [23]: 12% | viability, T/C [24]: 7.75%

O=C(c1cc(Cc2n[nH]c(=O)c3ccccc23)ccc1F)N1CCN(C(=O)C2CC2)CC1 + Cc1cccc(N(C)C(=O)C2C(O)CCN2c2nc(C)cc(C(F)(F)F)c2C#N)c1
IC50 (second compound 0.0316 µM): > 10 µM | IC50 (second compound 0.1 µM): > 10 µM | IC50 (second compound 0.316 µM): > 10 µM | IC50 (second compound 1 µM): > 10 µM | IC50 (second compound 3.16 µM): > 10 µM | IC50 (second compound 10 µM): > 10 µM | viability, T/C [1]: 89.3% | viability, T/C [2]: 99.9% | viability, T/C [3]: 99.9% | viability, T/C [4]: 100% | viability, T/C [25]: 118% | viability, T/C [26]: 75.5% | viability, T/C [5]: 94% | viability, T/C [6]: 92.4% | viability, T/C [7]: 96.3% | viability, T/C [8]: 92.7% | viability, T/C [27]: 114% | viability, T/C [28]: 81.8% | viability, T/C [9]: 94.8% | viability, T/C [10]: 116% | viability, T/C [11]: 99.7% | viability, T/C [12]: 97% | viability, T/C [29]: 112% | viability, T/C [30]: 78.1% | viability, T/C [13]: 101% | viability, T/C [14]: 96.8% | viability, T/C [15]: 113% | viability, T/C [16]: 90.7% | viability, T/C [31]: 99.5% | viability, T/C [32]: 76.1% | viability, T/C [17]: 96.3% | viability, T/C [18]: 99% | viability, T/C [19]: 97.6% | viability, T/C [20]: 106% | viability, T/C [33]: 113% | viability, T/C [34]: 58.7% | viability, T/C [21]: 115% | viability, T/C [22]: 103% | viability, T/C [23]: 100% | viability, T/C [24]: 108% | viability, T/C [35]: 113% | viability, T/C [36]: 65.2%

CC(C)n1c(=O)n(C)c2cnc3cc(F)c(-c4ccc(OCCCN5CCCCC5)nc4)cc3c21 + Cc1cccc(N(C)C(=O)C2C(O)CCN2c2nc(C)cc(C(F)(F)F)c2C#N)c1
IC50 (second compound 0.0316 µM): > 10 µM | IC50 (second compound 0.1 µM): > 10 µM | IC50 (second compound 0.316 µM): > 10 µM | IC50 (second compound 1 µM): > 10 µM | IC50 (second compound 3.16 µM): > 10 µM | IC50 (second compound 10 µM): > 10 µM | viability, T/C [1]: 101% | viability, T/C [2]: 97.7% | viability, T/C [3]: 94.8% | viability, T/C [4]: 90.8% | viability, T/C [25]: 119% | viability, T/C [26]: 100% | viability, T/C [5]: 88.8% | viability, T/C [6]: 93.2% | viability, T/C [7]: 103% | viability, T/C [8]: 92.3% | viability, T/C [27]: 98% | viability, T/C [28]: 88.2% | viability, T/C [9]: 90.6% | viability, T/C [10]: 95.6% | viability, T/C [11]: 94% | viability, T/C [12]: 87.6% | viability, T/C [29]: 119% | viability, T/C [30]: 93.9% | viability, T/C [13]: 104% | viability, T/C [14]: 107% | viability, T/C [15]: 99.6% | viability, T/C [16]: 102% | viability, T/C [31]: 102% | viability, T/C [32]: 84.5% | viability, T/C [17]: 84.3% | viability, T/C [18]: 86.8% | viability, T/C [19]: 99.4% | viability, T/C [20]: 96% | viability, T/C [33]: 107% | viability, T/C [34]: 97.2% | viability, T/C [21]: 112% | viability, T/C [22]: 94.6% | viability, T/C [23]: 103% | viability, T/C [24]: 114% | viability, T/C [35]: 94.9% | viability, T/C [36]: 82.7%

Reference: PubChem BioAssay AID1963854 (Molecular Pharmacology Branch, DTP, NCI, 2024)
